16 compounds from US20260325533A1, “CDK INHIBITOR COMPOUNDS” (ALEKSIA THERAPEUTICS, INC., priority 2023, published 2026) can be followed below.

SMILES strings stand for the structures. pIC50: −log10 of the molar value. Where two headings read alike, the source gives them in different places. Bounds are passed on as bounds.

What all share (format): biochemical
One assay has as its target CDK1/CCNB1 (Homo sapiens, UniProt P06493). As to the kind of experiment: CDK1 homogeneous time-resolved fluorescence (HTRF) kinase assay. The following applies: CDK1/CCNB. The procedure, abridged:
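0.5 nM CDK1/CCNB1 was preincubated 20 min at 23 °C with compound in HEPES pH-unspecified buffer (MgCl2, EGTA, DTT, Tween 20), then reacted 60 min with 1 mM ATP and 50 nM ULight-4E-BP1 (Thr37/46) peptide. EDTA-stopped reactions were detected with 2 nM Eu-anti-phospho antibody; IC50 from 11-point half-log titrations.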
Background: TR-FRET usually uses a lanthanide donor and a delayed reading to cut background.

For the next assay, the target named is CDK4/CCND3 (Homo sapiens, UniProt P11802). In words: CDK4 homogeneous time-resolved fluorescence (HTRF) kinase assay. To be noted: CDK4/CCND. The procedure, abridged: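 Inhibition of CDK4/CCND3 (1.5 nM) was measured at high ATP (1 mM) using 50 nM ULight-labelled 4E-BP1 Thr37/46 peptide; detection used 2 nM europium anti-phospho antibody after EDTA quench. IC50 values came from 11-point half-log titrations typically starting at 10 μM.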
CDK4/CCND3, sequence (P11802 whole entry): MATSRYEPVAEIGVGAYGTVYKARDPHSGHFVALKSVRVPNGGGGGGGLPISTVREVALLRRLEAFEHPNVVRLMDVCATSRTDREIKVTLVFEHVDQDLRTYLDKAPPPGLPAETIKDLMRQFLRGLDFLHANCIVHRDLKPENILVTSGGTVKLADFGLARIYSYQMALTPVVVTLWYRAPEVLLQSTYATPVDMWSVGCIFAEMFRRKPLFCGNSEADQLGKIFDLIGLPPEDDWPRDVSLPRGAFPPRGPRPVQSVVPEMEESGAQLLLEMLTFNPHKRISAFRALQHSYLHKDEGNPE
CDK4/CCND3, sequence (P30281 whole entry partner): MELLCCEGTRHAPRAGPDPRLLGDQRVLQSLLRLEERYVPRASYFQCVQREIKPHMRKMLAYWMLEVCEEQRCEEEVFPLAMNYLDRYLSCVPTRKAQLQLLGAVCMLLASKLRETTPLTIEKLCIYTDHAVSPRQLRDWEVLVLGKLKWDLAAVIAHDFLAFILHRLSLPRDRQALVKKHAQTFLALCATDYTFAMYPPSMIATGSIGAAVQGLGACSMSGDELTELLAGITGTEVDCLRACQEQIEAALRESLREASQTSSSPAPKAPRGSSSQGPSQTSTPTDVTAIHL

The next assay has as its target CDK6/CCND1 (Homo sapiens, UniProt Q00534). As to the kind of experiment: CDK6 homogeneous time-resolved fluorescence (HTRF) kinase assay. To be noted: CDK6/CCND, 1 mM ATP. The method, boiled down:
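1 nM enzyme, 1 mM ATP, 50 nM ULight-4E-BP1 (Thr37/46) peptide, 1% DMSO; 20 min compound preincubation, 60 min reaction, 23 °C. EDTA stop, 2 nM Eu-anti-phospho-4E-BP1 antibody 60 min. TR-FRET 665 nm (or 665/615 ratio); IC50 from 11-point half-log titration, top 10 μM.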

A further assay addresses CDK2/CCNE1 (Homo sapiens, UniProt P24941). In words: CDK2 homogeneous time-resolved fluorescence (HTRF) kinase assay. To be noted: CDK2/CCNE. The procedure, abridged: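 CDK2/CCNE1 (3 nM) preincubated 20 min at 23 °C with compound, then reacted 60 min at 23 °C with 1 mM ATP and 50 nM ULight-4E-BP1 (Thr37/46) peptide. Stopped with EDTA, phospho-peptide detected by Eu-anti-phospho antibody (665 nm or 665/615 ratio). IC50 from 11-point half-log titrations typically starting at 10 μM.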

Where [1] appears, read: >250 nM, read-out: CDK1/CCNB IC50 >250 nM.
The mark [2] stands for this setting: >250 nM, read-out: CDK4/CCND IC50, >250 nM.
Where [3] appears, read: >250 nM, read-out: CDK6/CCND IC50, >250 nM.
Setting [4] is: 25-250 nM, read-out: CDK2/CCNE IC50, 25-250 nM.
The mark [5] stands for this setting: <25 nM, read-out: CDK2/CCNE IC50, <25 nM.
Where [6] appears, read: 25-250 nM, read-out: CDK1/CCNB IC50, 25-250 nM.
The mark [7] stands for this setting: 25-250 nM, read-out: CDK4/CCND IC50, 25-250 nM.
The mark [8] stands for this setting: 25-250 nM, read-out: CDK6/CCND IC50, 25-250 nM.

CDK6/CCND1, sequence (Q00534 whole entry): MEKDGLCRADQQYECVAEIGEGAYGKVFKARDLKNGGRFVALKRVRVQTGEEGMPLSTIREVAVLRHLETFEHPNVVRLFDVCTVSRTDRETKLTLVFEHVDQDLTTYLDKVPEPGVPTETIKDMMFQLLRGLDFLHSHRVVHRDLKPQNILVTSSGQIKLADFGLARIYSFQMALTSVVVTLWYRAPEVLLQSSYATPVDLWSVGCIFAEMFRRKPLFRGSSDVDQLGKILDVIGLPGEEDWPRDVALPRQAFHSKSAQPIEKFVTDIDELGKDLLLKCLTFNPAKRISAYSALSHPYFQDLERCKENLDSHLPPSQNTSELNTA
CDK6/CCND1, sequence (P24385 whole entry partner): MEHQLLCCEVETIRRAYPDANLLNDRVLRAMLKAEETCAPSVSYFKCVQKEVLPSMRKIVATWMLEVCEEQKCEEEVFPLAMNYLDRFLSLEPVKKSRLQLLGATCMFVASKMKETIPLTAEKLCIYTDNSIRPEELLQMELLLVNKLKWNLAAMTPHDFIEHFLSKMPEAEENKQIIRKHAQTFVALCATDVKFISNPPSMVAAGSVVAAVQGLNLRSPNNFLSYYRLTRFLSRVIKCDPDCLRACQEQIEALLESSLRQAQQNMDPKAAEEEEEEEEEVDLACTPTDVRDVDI
CDK1/CCNB1, sequence (P06493 whole entry): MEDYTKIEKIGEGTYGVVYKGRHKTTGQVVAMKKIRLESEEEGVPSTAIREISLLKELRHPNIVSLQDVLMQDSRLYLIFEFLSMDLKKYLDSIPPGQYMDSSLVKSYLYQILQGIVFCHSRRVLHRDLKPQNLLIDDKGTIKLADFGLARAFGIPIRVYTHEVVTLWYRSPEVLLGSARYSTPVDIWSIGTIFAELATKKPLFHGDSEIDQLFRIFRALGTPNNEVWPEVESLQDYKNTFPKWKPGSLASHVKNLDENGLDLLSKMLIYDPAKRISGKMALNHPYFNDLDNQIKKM
CDK1/CCNB1, sequence (P14635 whole entry partner): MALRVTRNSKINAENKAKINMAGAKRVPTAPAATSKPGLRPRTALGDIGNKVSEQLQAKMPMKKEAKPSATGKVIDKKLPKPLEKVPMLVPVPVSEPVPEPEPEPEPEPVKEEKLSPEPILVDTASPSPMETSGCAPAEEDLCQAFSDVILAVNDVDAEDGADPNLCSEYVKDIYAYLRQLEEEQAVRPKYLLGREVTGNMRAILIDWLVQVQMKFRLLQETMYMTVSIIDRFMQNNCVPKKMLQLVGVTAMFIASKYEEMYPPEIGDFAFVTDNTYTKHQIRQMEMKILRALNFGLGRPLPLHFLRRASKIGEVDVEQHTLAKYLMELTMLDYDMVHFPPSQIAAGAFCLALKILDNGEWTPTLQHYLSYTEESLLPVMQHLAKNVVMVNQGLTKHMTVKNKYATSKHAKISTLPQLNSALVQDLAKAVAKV

In the case of `Cc1c(-c2nccc3cnc(Nc4ccc(S(=O)(=O)NC5CCCCC5)cc4)cc23)ccc2c1cnn2CC(C)(C)O` [Ex 758, N-cyclohexyl-4-((5-(1-(2-hydroxy-2-methylpropyl)-4-methyl-1H-indazol-5-yl)-2,6-naphthyridin-3-yl)amino)benzenesulfonamide], the pIC50 was below 6.60 on CDK1/CCNB1 (setting [1]), below 6.60 at CDK4/CCND3 (setting [2]), below 6.60 on CDK6/CCND1 (setting [3]) and 6.60 to 7.60 at CDK2/CCNE1 (setting [4]).

Consider `Cc1ccnc(NS(=O)(=O)c2ccc(Nc3cc4c(-c5ccc6c(cnn6CC(O)(C(F)(F)F)C(F)(F)F)c5C)nccc4cn3)cc2)n1` [Ex 759, 4-((5-(4-methyl-1-(3,3,3-trifluoro-2-hydroxy-2-(trifluoromethyl)propyl)-1H-indazol-5-yl)-2,6-naphthyridin-3-yl)amino)-N-(4-methylpyrimidin-2-yl)benzenesulfonamide], for which the pIC50 on CDK1/CCNB1 (setting [1]) is below 6.60; at CDK4/CCND3 (setting [2]), below 6.60; at CDK6/CCND1 (setting [3]), below 6.60; at CDK2/CCNE1 (setting [5]), above 7.60.

Turning to `Cc1c(-c2nccc3cnc(Nc4ccc(S(=O)(=O)NC5CCN(CCO)CC5)cc4)cc23)ccc2c1cnn2CC(C)(C)O` [Ex 762, 4-((5-(1-(2-hydroxy-2-methylpropyl)-4-methyl-1H-indazol-5-yl)-2,6-naphthyridin-3-yl)amino)-N-(1-(2-hydroxyethyl)piperidin-4-yl)benzenesulfonamide], the pIC50 at CDK1/CCNB1 (setting [6]) was 6.60 to 7.60; at CDK4/CCND3 (setting [7]), 6.60 to 7.60; at CDK6/CCND1 (setting [8]) it was 6.60 to 7.60; at CDK2/CCNE1 (setting [5]) it was above 7.60.

In the case of `Cc1c(-c2nccc3cnc(Nc4ccc(S(=O)(=O)NC5CCN(C)CC5)cc4)cc23)ccc2c1cnn2CC(C)(C)O` [Ex 763, 4-((5-(1-(2-hydroxy-2-methylpropyl)-4-methyl-1H-indazol-5-yl)-2,6-naphthyridin-3-yl)amino)-N-(1-methylpiperidin-4-yl)benzenesulfonamide], the pIC50 is 6.60 to 7.60 at CDK1/CCNB1 (setting [6]), 6.60 to 7.60 on CDK4/CCND3 (setting [7]), 6.60 to 7.60 on CDK6/CCND1 (setting [8]) and above 7.60 at CDK2/CCNE1 (setting [5]).

Regarding `Cc1c(-c2nccc3cnc(Nc4ccc(S(=O)(=O)NC5CCNCC5)cc4)cc23)ccc2c1cnn2CC(C)(C)O` [Ex 764, 4-((5-(1-(2-hydroxy-2-methylpropyl)-4-methyl-1H-indazol-5-yl)-2,6-naphthyridin-3-yl)amino)-N-(piperidin-4-yl)benzenesulfonamide], the pIC50 at CDK1/CCNB1 (setting [1]) was below 6.60; on CDK4/CCND3 (setting [7]), 6.60 to 7.60; at CDK6/CCND1 (setting [8]) it was 6.60 to 7.60; at CDK2/CCNE1 (setting [5]), above 7.60.

Regarding `COc1nc(S(C)(=O)=O)ccc1Nc1cc2c(-c3ccc4c(cnn4CC(C)(C)O)c3C)nccc2cn1` [Ex 766, 1-(5-(7-((2-methoxy-6-(methylsulfonyl)pyridin-3-yl)amino)-2,6-naphthyridin-1-yl)-4-methyl-1H-indazol-1-yl)-2-methylpropan-2-ol], the pIC50 was below 6.60 on CDK1/CCNB1 (setting [1]), below 6.60 on CDK4/CCND3 (setting [2]), below 6.60 at CDK6/CCND1 (setting [3]) and 6.60 to 7.60 at CDK2/CCNE1 (setting [4]).

Consider `Cc1c(-c2nccc3cnc(Nc4ccc(NS(=O)(=O)c5ccc(N6CCNCC6)cc5)cc4)cc23)ccc2c1cnn2CC(C)(C)O` [Ex 767, N-(4-((5-(1-(2-hydroxy-2-methylpropyl)-4-methyl-1H-indazol-5-yl)-2,6-naphthyridin-3-yl)amino)phenyl)-4-(piperazin-1-yl)benzenesulfonamide], for which the pIC50 is below 6.60 on CDK1/CCNB1 (setting [1]), below 6.60 at CDK4/CCND3 (setting [2]), below 6.60 at CDK6/CCND1 (setting [3]) and above 7.60 at CDK2/CCNE1 (setting [5]).

In the case of `Cc1c(-c2nccc3cnc(Nc4ccc(NS(=O)(=O)c5ccccn5)cc4)cc23)ccc2c1cnn2CC(C)(C)O` [Ex 768, N-(4-((5-(1-(2-hydroxy-2-methylpropyl)-4-methyl-1H-indazol-5-yl)-2,6-naphthyridin-3-yl)amino)phenyl)pyridine-2-sulfonamide], the pIC50 is 6.60 to 7.60 at CDK1/CCNB1 (setting [6]), 6.60 to 7.60 at CDK4/CCND3 (setting [7]), 6.60 to 7.60 at CDK6/CCND1 (setting [8]) and above 7.60 at CDK2/CCNE1 (setting [5]).

For `Cc1c(-c2nccc3cnc(Nc4ccc(S(=O)(=O)Nc5nccc(N6CCOCC6)n5)cc4)cc23)ccc2c1cnn2CC(O)(C(F)(F)F)C(F)(F)F` [Ex 769, 4-((5-(4-methyl-1-(3,3,3-trifluoro-2-hydroxy-2-(trifluoromethyl)propyl)-1H-indazol-5-yl)-2,6-naphthyridin-3-yl)amino)-N-(4-morpholinopyrimidin-2-yl)benzenesulfonamide], the pIC50 on CDK1/CCNB1 (setting [1]) is below 6.60; at CDK4/CCND3 (setting [2]), below 6.60; at CDK6/CCND1 (setting [3]), below 6.60; on CDK2/CCNE1 (setting [5]), above 7.60.

In the case of `Cc1c(-c2nccc3cnc(Nc4ccc(S(=O)(=O)Nc5cc(N6CCOCC6)ccn5)cc4)cc23)ccc2c1cnn2CC(C)(C)O` [Ex 772, 4-((5-(1-(2-hydroxy-2-methylpropyl)-4-methyl-1H-indazol-5-yl)-2,6-naphthyridin-3-yl)amino)-N-(4-morpholinopyridin-2-yl)benzenesulfonamide], the pIC50 on CDK1/CCNB1 (setting [1]) was below 6.60; on CDK4/CCND3 (setting [7]), 6.60 to 7.60; at CDK6/CCND1 (setting [8]), 6.60 to 7.60; at CDK2/CCNE1 (setting [5]) it was above 7.60.

Turning to `Cc1c(-c2nccc3cnc(Nc4ccc(S(=O)(=O)Nc5ccc(N6CCOCC6)cn5)cc4)cc23)ccc2c1cnn2CC(C)(C)O` [Ex 773, 4-((5-(1-(2-hydroxy-2-methylpropyl)-4-methyl-1H-indazol-5-yl)-2,6-naphthyridin-3-yl)amino)-N-(5-morpholinopyridin-2-yl)benzenesulfonamide], the pIC50 on CDK1/CCNB1 (setting [1]) was below 6.60; on CDK4/CCND3 (setting [7]), 6.60 to 7.60; on CDK6/CCND1 (setting [8]) it was 6.60 to 7.60; on CDK2/CCNE1 (setting [5]), above 7.60.

On to `Cc1c(-c2nccc3cnc(Nc4ccc(S(=O)(=O)Nc5cc(C(C)(C)O)ccn5)cc4)cc23)ccc2c1cnn2CC(C)(C)O` [Ex 774, 4-((5-(1-(2-hydroxy-2-methylpropyl)-4-methyl-1H-indazol-5-yl)-2,6-naphthyridin-3-yl)amino)-N-(4-(2-hydroxypropan-2-yl)pyridin-2-yl)benzenesulfonamide], for which the pIC50 was below 6.60 at CDK1/CCNB1 (setting [1]), 6.60 to 7.60 on CDK4/CCND3 (setting [7]), 6.60 to 7.60 at CDK6/CCND1 (setting [8]) and above 7.60 at CDK2/CCNE1 (setting [5]).

On to `Cc1c(-c2nccc3cnc(Nc4ccc(S(=O)(=O)Nc5cc(C(F)(F)F)cc(C(F)(F)F)n5)cc4)cc23)ccc2c1cnn2CC(C)(C)O` [Ex 775, N-(4,6-bis(trifluoromethyl)pyridin-2-yl)-4-((5-(1-(2-hydroxy-2-methylpropyl)-4-methyl-1H-indazol-5-yl)-2,6-naphthyridin-3-yl)amino)benzenesulfonamide], for which the pIC50 is below 6.60 on CDK1/CCNB1 (setting [1]), below 6.60 at CDK4/CCND3 (setting [2]), below 6.60 on CDK6/CCND1 (setting [3]) and above 7.60 on CDK2/CCNE1 (setting [5]).

As to `Cc1c(-c2nccc3cnc(Nc4ccc(NS(=O)(=O)c5ccc(Cl)cn5)cc4)cc23)ccc2c1cnn2CC(C)(C)O` [Ex 777, 5-chloro-N-(4-((5-(1-(2-hydroxy-2-methylpropyl)-4-methyl-1H-indazol-5-yl)-2,6-naphthyridin-3-yl)amino)phenyl)pyridine-2-sulfonamide], the pIC50 on CDK1/CCNB1 (setting [1]) is below 6.60; at CDK4/CCND3 (setting [2]), below 6.60; on CDK6/CCND1 (setting [3]), below 6.60; on CDK2/CCNE1 (setting [5]), above 7.60.

On to `Cc1c(-c2nccc3cnc(Nc4ccc(NS(=O)(=O)c5ccc(C(F)(F)F)nc5)cc4)cc23)ccc2c1cnn2CC(C)(C)O` [Ex 778, N-(4-((5-(1-(2-hydroxy-2-methylpropyl)-4-methyl-1H-indazol-5-yl)-2,6-naphthyridin-3-yl)amino)phenyl)-6-(trifluoromethyl)pyridine-3-sulfonamide], for which the pIC50 is below 6.60 at CDK1/CCNB1 (setting [1]), below 6.60 at CDK4/CCND3 (setting [2]), below 6.60 at CDK6/CCND1 (setting [3]) and 6.60 to 7.60 on CDK2/CCNE1 (setting [4]).

On to `COc1ccc(S(=O)(=O)Nc2ccc(Nc3cc4c(-c5ccc6c(cnn6CC(C)(C)O)c5C)nccc4cn3)cc2)cn1` [Ex 779, N-(4-((5-(1-(2-hydroxy-2-methylpropyl)-4-methyl-1H-indazol-5-yl)-2,6-naphthyridin-3-yl)amino)phenyl)-6-methoxypyridine-3-sulfonamide], for which the pIC50 on CDK1/CCNB1 (setting [1]) was below 6.60; at CDK4/CCND3 (setting [2]) it was below 6.60; on CDK6/CCND1 (setting [3]) it was below 6.60; on CDK2/CCNE1 (setting [5]), above 7.60.
